For 17 molecules, IC50 results are on record in patent US10689377B2 (Mirati Therapeutics, Inc., priority 2017, dated 2020).

KRas G12C, sequence (P01116 1-188 isoform P01116-2 G12C): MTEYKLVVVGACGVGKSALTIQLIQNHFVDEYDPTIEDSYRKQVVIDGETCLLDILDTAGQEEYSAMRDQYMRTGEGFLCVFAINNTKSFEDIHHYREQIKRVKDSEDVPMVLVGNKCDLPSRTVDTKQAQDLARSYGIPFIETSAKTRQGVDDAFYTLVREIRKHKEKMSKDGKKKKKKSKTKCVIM

The assay concerns the target KRas G12C (Homo sapiens, UniProt P01116, G12C). Kind of assay: Cellular inhibition of KRas G12C measured by Phospho-ERK in NCI-H358 cells. It counts as cell-based. As to conditions: pERK(Thr202/Tyr204) normalized with GAPDH, NCI-H358 cells, 3 hours; read-out: IC50. The method, boiled down: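 Readout is pERK(Thr202/Tyr204) immunofluorescence normalized to GAPDH, expressed as percent of DMSO control and fitted with a 4-parameter curve for IC50. Attached NCI-H358 cells received compound for 3 hours in 0.5% DMSO, followed by fixation and methanol permeabilization.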
A word on the IC50: it is the concentration that inhibits the measured activity by half. With `C=CC(=O)N1CCN(c2nc(OCCO)nc3c2CCN(c2cc(O)cc4ccccc24)C3)CC1` [Example 142, 1-[4-[2-(2-hydroxyethoxy)-7-(3-hydroxy-1-naphthyl)-6,8-dihydro-5H-pyrido[3,4-d]pyrimidin-4-yl]piperazin-1-yl]prop-2-en-1-one], the 50% inhibitory concentration (IC50) is above 1000 nM.

`C=CC(=O)N1CCN(c2ncnc3c2CCN(c2c(O)cccc2F)C3)CC1` [Example 4, 1-(4-(7-(2-fluoro-6-hydroxyphenyl)-5,6,7,8-tetrahydropyrido[3,4-d]pyrimidin-4-yl)piperazin-1-yl)prop-2-en-1-one]: the IC50 was above 1000 nM.

For the molecule `C=CC(=O)N1CCN(c2nc(OCCCN3C[C@@H]4C[C@H]3CO4)nc3c2CCN(c2c(C)ccc4[nH]ncc24)C3)CC1` [Example 181, 1-(4-(2-(3-((1S,4S)-2-oxa-5-azabicyclo[2.2.1]heptan-5-yl)propoxy)-7-(5-methyl-1H-indazol-4-yl)-5,6,7,8-tetrahydropyrido[3,4-d]pyrimidin-4-yl)piperazin-1-yl)prop-2-en-1-one], the IC50 is above 1000 nM.

Take `CN(C)C/C=C(/F)C(=O)N1CCN(c2nc(OC[C@@H]3CCCN3C)nc3c2CCN(c2cccc4cccc(Cl)c24)C3)C[C@@H]1CC#N` [Example 503, 2-[(2S)-4-[7-(8-chloro-1-naphthyl)-2-[[(2S)-1-methylpyrrolidin-2-yl]methoxy]-6,8-dihydro-5H-pyrido[3,4-d]pyrimidin-4-yl]-1-[(E)-4-(dimethylamino)-2-fluoro-but-2-enoyl]piperazin-2-yl]acetonitrile]: the IC50 is above 1000 nM.

On to `Cc1cccc(N2CCc3c(nc(OC[C@@H]4C[C@@H](F)CN4C)nc3N3CCN(C(=O)/C=C/CN(C)C)[C@@H](CC#N)C3)C2)c1C` [Example 438, 2-((S)-1-((E)-4-(dimethylamino)but-2-enoyl)-4-(7-(2,3-dimethylphenyl)-2-(((2S,4R)-4-fluoro-1-methylpyrrolidin-2-yl)methoxy)-5,6,7,8-tetrahydropyrido[3,4-d]pyrimidin-4-yl)piperazin-2-yl)acetonitrile], for which the IC50 lay within 0.1 to 1000 nM.

On to `C/C=C/C(=O)N1CCN(c2nc(OC[C@@H]3CCCN3C)nc3c2CCN(c2cccc4ccccc24)C3)CC1CC#N` (stereo partly drawn) [Example 263, 2-[1-[(E)-but-2-enoyl]-4-[2-[[(2S)-1-methylpyrrolidin-2-yl]methoxy]-7-(1-naphthyl)-6,8-dihydro-5H-pyrido[3,4-d]pyrimidin-4-yl]piperazin-2-yl]acetonitrile], for which the IC50 lay within 0.1 to 1000 nM.

As for `Cc1cccc2cccc(N3CCc4c(nc(OC[C@@H]5CCCN5C)nc4N4CCN(C(=O)/C=C/c5ccncc5)[C@@H](CC#N)C4)C3)c12` [Example 526, 2-((S)-4-(7-(8-methylnaphthalen-1-yl)-2-(((S)-1-methylpyrrolidin-2-yl)methoxy)-5,6,7,8-tetrahydropyrido[3,4-d]pyrimidin-4-yl)-1-((E)-3-(pyridin-4-yl)acryloyl)piperazin-2-yl)acetonitrile], the 50% inhibitory concentration (IC50) was in the range of 0.1 to 1000 nM.

Regarding `C=CC(=O)N1CCN(c2nc(OC[C@@H]3CCCN3C)nc3c2CCN(c2cccc(OC)c2C)C3)C[C@@H]1CC#N` [Example 324, 2-[(2S)-4-[7-(3-methoxy-2-methyl-phenyl)-2-[[(2S)-1-methylpyrrolidin-2-yl]methoxy]-6,8-dihydro-5H-pyrido[3,4-d]pyrimidin-4-yl]-1-prop-2-enoyl-piperazin-2-yl]acetonitrile], the IC50 was in the range of 0.1 to 1000 nM.

As to `C=C(F)C(=O)N1CCN(c2nc(OC[C@@H]3CC(F)(F)CN3C)nc3c2CCN(c2c(C)c(C)cc4[nH]ncc24)C3)C[C@@H]1CC#N` [Example 613, 2-((S)-4-(2-(((S)-4,4-difluoro-1-methylpyrrolidin-2-yl)methoxy)-7-(5,6-dimethyl-1H-indazol-4-yl)-5,6,7,8-tetrahydropyrido[3,4-d]pyrimidin-4-yl)-1-(2-fluoroacryloyl)piperazin-2-yl)acetonitrile], the IC50 lay within 0.1 to 1000 nM.

As for `C=CC(=O)N1CCN(c2nc(OC[C@@H]3CCCN3C)nc3c2CCN(c2cccc4ccccc24)C3)C(CC#N)C1` (stereo partly drawn) [Example 439, 2-(4-acryloyl-1-(2-(((S)-1-methylpyrrolidin-2-yl)methoxy)-7-(naphthalen-1-yl)-5,6,7,8-tetrahydropyrido[3,4-d]pyrimidin-4-yl)piperazin-2-yl)acetonitrile], the 50% inhibitory concentration (IC50) was above 1000 nM.

Regarding `C=CC(=O)N1CCN(c2nc(N3CC(N(C)C)C3)nc3c2CCN(c2cc(O)cc4ccccc24)C3)CC1` [Example 128, 1-(4-(2-(3-(dimethylamino)azetidin-1-yl)-7-(3-hydroxynaphthalen-1-yl)-5,6,7,8-tetrahydropyrido[3,4-d]pyrimidin-4-yl)piperazin-1-yl)prop-2-en-1-one], the half-maximal inhibitory concentration (IC50) is above 1000 nM.

For the molecule `C=CC(=O)N1CCN(c2nc(OCCN3CC(F)(F)C3)nc3c2CCN(c2cc(O)cc4ccccc24)C3)CC1` [Example 138, 1-[4-[2-[2-(3,3-difluoroazetidin-1-yl)ethoxy]-7-(3-hydroxy-1-naphthyl)-6,8-dihydro-5H-pyrido[3,4-d]pyrimidin-4-yl]piperazin-1-yl]prop-2-en-1-one], the half-maximal inhibitory concentration (IC50) was above 1000 nM.

Regarding `C=CC(=O)N1CCN(c2nc(OC[C@@H]3CCCN3C)nc3c2CCN(c2cc(O)cc4ccccc24)C3)C(CO)C1` (stereo partly drawn) [Example 169, 1-[3-(hydroxymethyl)-4-[7-(3-hydroxy-1-naphthyl)-2-[[(2S)-1-methylpyrrolidin-2-yl]methoxy]-6,8-dihydro-5H-pyrido [3,4-d]pyrimidin-4-yl]piperazin-1-yl]prop-2-en-1-one], the 50% inhibitory concentration (IC50) was 0.1 to 1000 nM.

As for `C=C(F)C(=O)N1CCN(c2nc(OC[C@@H]3CCCN3C)nc3c2CCN(c2cccc(C)c2C)C3)C[C@@H]1CC#N` [Example 472, 2-[(2S)-4-[7-(2,3-dimethylphenyl)-2-[[(2S)-1-methylpyrrolidin-2-yl]methoxy]-6,8-dihydro-5H-pyrido[3,4-d]pyrimidin-4-yl]-1-(2-fluoroprop-2-enoyl)piperazin-2-yl]acetonitrile], the IC50 lay in the range of 0.1 to 1000 nM.

Take `C=CC(=O)N1CCN(c2nc(OC[C@@H]3CCCN3C)nc3c2CCN(c2cccc(Cl)c2Cl)C3)C[C@@H]1CC#N` [Example 421, 2-((S)-1-acryloyl-4-(7-(2,3-dichlorophenyl)-2-(((S)-1-methylpyrrolidin-2-yl)methoxy)-5,6,7,8-tetrahydropyrido[3,4-d]pyrimidin-4-yl)piperazin-2-yl)acetonitrile]: the IC50 was 0.1 to 1000 nM.

In the case of `C=C(F)C(=O)N1CCN(c2nc(OC[C@@H]3CCCN3C)nc3c2CCN(c2cncc4ccc(F)cc24)C3)C[C@@H]1CC#N` [Example 609, 2-[(2S)-4-[7-(6-fluoro-4-isoquinolyl)-2-[[(2S)-1-methylpyrrolidin-2-yl]methoxy]-6,8-dihydro-5H-pyrido[3,4-d]pyrimidin-4-yl]-1-(2-fluoroprop-2-enoyl)piperazin-2-yl]acetonitrile], the IC50 was 0.1 to 1000 nM.

Take `C=CC(=O)N1CCN(c2nc(OC[C@H]3CCCN3C)nc3c2CCN(c2ccccc2C(F)(F)F)C3)CC1CC#N` (stereo partly drawn) [Example 299, 2-[4-[2-[[(2R)-1-methylpyrrolidin-2-yl]methoxy]-7-[2-(trifluoromethyl)phenyl]-6,8-dihydro-5H-pyrido[3,4-d]pyrimidin-4-yl]-1-prop-2-enoyl-piperazin-2-yl]acetonitrile]: the IC50 fell in the range of 0.1 to 1000 nM.
